Key:
Sprague-Dawley rats [1] = test: Spontaneous sleep apnea (apnea index) by plethysmography in freely moving rats; assay type: in vivo; settings: rat; for breaths with long duration in typical 6-hour recordings (FIG. 1A): vs vehicle recording; for time dependence of apnea suppression during the 6-hour recording period: NREM and REM sleep; for degree of apnea suppression, Δ^9THC compared with oleamide: highest dose (10.0 mg/kg)
Protocol: These recoding and data analysis methods have been described in detail elsewhere [Carley and Radulovacki (Chest., 115: 1397 (1999)].
Adult, male Sprague-Dawley rats (Sasco-King, Wilmington, Mass.; 11 per test group; 300 g) were maintained on a 12-hour light (08:00-20:00 hour)/12-hour dark (20:00-08:00 hour) cycle for one week, housed in individual cages and given ad libitum access to food and water. Following the one week of acclimatization, animals were subjected to the following surgical procedures.
(§1) Δ^9THC (dronabinol, Roxane Laboratories, Columbus, Ohio) was dissolved in DMSO: oleamide (ICN Biomedicals, Aurora, Ohio) was suspended in peanut oil with sonication for 20 minutes; and serotonin was dissolved in saline. The study was a fully nested, repeated measures crossover design, such that each animal received each of 12 intraperitoneal injections (1 ml/kg) exactly one time: vehicle alone (saline, DMSO, or peanut oil); Δ^9THC alone (0.1, 1.0, or 10.0 mg/kg); oleamide alone (0.1, 1.0, or 10.0 mg/kg); serotonin alone (0.79 mg/kg); or combination injection (0.1 mg/kg Δ^9THC followed, after 15 minutes, by 0.79 mg/kg serotonin or 0.1 mg/kg oleamide followed by 0.79 mg/kg serotonin). Each injection was made 15 minutes prior to polygraphic recording for 6 hours (10:00-16:00). Successive recordings for an individual animal were separated by at least three days and the treatments were given in random order.
(§2) Respiration was recorded by placing each animal, unrestrained, inside a single chamber plethysmograph (PLYUN1R/U; Buxco Electronics, Sharon, Conn.; dimension 6 in.×10 in.×6 in.) ventilated with a bias flow of fresh room air at a rate of 2 L/min. A cable plugged onto the animal's connector and passed through a sealed port was used to carry the bioelectrical activity from the head implant.
Sleep and waking states were assessed using the biparietal EEG and nuchal EMG signals on 10-second epochs as described by Bennington et al. [Sleep 17:28-36 (1994)]. This software discriminated wakefulness (W) as a high frequency low amplitude EEG with a concomitant high EMG tone, NREM sleep by increased spindle and […] activity together with decreased EMG tone, and REM sleep by a low ratio of a delta to theta activity and an absence of EMG tone. Sleep efficiency was measured as the percentage of total recorded epochs staged as NREM or REM sleep.
(§3) An accepted physiological animal model [rat; Monti, et al., Pharamcol. Biochem. Behav., 51:125-131; (1995)] of sleep apnea was used to assess the effects of a cannabinoid receptor agonist activity and/or agents having cannabimimetic activity. More specifically, sleep apneas, defined as cessation of respiratory effort for at least 2.5 seconds, were scored for each recording session and were associated with the stage in which they occurred: NREM or REM sleep. The duration requirement of 2.5 seconds represented at least 2 “missed” breaths, which is therefore analogous to a 10 second apnea duration requirement in humans, which also reflects 2-3 missed breaths. The events detected represent central apneas because decreased ventilation associated with obstructed or occluded airways would generate an increased plethysmographic signal, rather than a pause. An apnea index (AI), defined as apneas per hour in a stage was separately determined for NREM and REM sleep. The effects of sleep stage (NREM vs. REM) and injection (control vs. test compounds) were tested using ANOVA with repeated measures. Multiple comparisons were controlled using Fisher's protected least significant difference (PLSD). In addition, the timing and volume of each breath were scored by automatic analysis (Experimenters' Workbench; Datawave Technologies, Longmont, Colo.). For each animal the mean respiratory rate (RR) and minute ventilation (MV) was computed for W throughout the 6 hour control recording and used as a baseline to normalize respiration during sleep and during test compound administration in that animal. […]

CB1 receptors = CB1 receptors (Homo sapiens, UniProt P21554); settings: cited from earlier work
Sequence of CB1 receptors (P21554 whole entry): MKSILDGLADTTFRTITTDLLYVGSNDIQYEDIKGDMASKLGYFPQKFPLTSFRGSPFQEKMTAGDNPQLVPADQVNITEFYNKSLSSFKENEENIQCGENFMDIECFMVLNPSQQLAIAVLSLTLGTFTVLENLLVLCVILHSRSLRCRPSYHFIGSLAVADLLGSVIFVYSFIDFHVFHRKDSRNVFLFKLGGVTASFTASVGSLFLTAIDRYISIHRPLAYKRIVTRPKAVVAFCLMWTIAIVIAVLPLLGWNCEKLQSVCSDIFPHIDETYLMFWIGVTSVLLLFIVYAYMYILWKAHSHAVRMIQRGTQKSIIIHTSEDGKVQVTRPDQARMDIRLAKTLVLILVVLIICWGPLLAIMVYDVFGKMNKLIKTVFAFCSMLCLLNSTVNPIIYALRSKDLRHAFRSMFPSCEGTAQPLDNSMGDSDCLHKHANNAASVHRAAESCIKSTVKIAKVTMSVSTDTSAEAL

CB2 receptors = CB2 receptors (Homo sapiens, UniProt P34972); settings: cited from earlier work
Sequence of CB2 receptors (P34972 whole entry): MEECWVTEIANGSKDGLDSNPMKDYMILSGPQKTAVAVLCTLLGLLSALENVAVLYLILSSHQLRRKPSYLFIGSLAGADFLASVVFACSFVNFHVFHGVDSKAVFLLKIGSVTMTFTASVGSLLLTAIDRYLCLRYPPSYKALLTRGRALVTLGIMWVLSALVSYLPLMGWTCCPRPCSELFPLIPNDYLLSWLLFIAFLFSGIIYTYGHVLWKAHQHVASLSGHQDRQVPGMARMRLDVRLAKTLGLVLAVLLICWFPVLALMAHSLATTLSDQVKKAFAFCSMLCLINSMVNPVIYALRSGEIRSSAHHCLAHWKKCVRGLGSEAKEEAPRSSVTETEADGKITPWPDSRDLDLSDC

Sprague-Dawley rats [2] = test: Respiratory rate, minute ventilation and tidal volume by plethysmography; assay type: in vivo; settings: rat; for average respiratory rate (RR) / respiratory minute ventilation: intraperitoneal; for respiratory minute ventilation: compared with the effects on RR
Protocol: as §1, §2
The bias flow of room air (2 l/min) was more than one order of magnitude greater than the alveolar ventilation of the rat, ensuring that no rebreathing occurred. Thermal fluctuations associated with tidal respiration induced changes in plethysmograph pressure proportional to tidal volume. Plethysmograph pressure was monitored using a Validyne DP45-14 differential pressure transducer (±2 cm H20). Prior to each experimental study, the plethysmograph was calibrated for tidal volume using the method described by Epstein et al. (J. Appl. Physiol., 49, 1107 (1980)). An adaptive threshold algorithm (Datawave Systems, Longmont, Colo.) was used to measure the duration and tidal amplitude of each breath in each recording. From these values, instantaneous respiratory rate (RR) and minute ventilation (MV) were computed on a breath by breath basis. Respiratory variability was assessed by calculating the standard deviations of RR and MV for each 10 second recording epoch. These standard deviations were then averaged separately for each sleep/wake state.
as §3

Sprague-Dawley rats [3] = test: Sleep/wake architecture by EEG/EMG recording; assay type: in vivo; settings: rat, intraperitoneal; for sleep/wake architecture: 6 hour recording
Protocol: Acclimatized animals were anesthetized for the implantation of cortical electrodes for electroencephalogram (EEG) recording and neck muscle electrodes for electromyogram (EMG) recording using a mixture of ketamine (Vedco, Inc., St. Joseph, Mo.; 80 mg/ml) and xylazine (Vedco, Inc., St. Joseph, Mo.; 5 mg/ml; 4:1, volume/volume) at a volume of 1 ml/kg body weight. The surface of the skull was exposed surgically and cleaned with a 20% solution of hydrogen peroxide followed by, a solution of 95% isopropyl alcohol. Next, a dental preparation of sodium fluoride: (Flura-GEL®, Saslow Dental, Mt. Prospect, Ill.) was applied to harden the skull above the parietal cortex and allowed to remain in place for 5 minutes. The fluoride mixture was then removed from the skull above the parietal cortex. The EEG electrodes consisting of four stainless steel machine screws, having leads attached thereto, were threaded into the skull to rest on the dura over the parietal cortex. A thin layer of Justi® resin cement (Saslow Dental, Mt. Prospect, Ill.) was applied to cover the screw heads (of screws implanted in the skull) and surrounding skull to further promote the adhesion of the implant. EMG electrodes consisting of two ball-shaped wires were inserted into the bilateral neck musculature. All leads (i.e., EEG and EMG leads) were soldered to a miniature connector (39F1401, Newark Electronics, Chicago, Ill.). Lastly, the entire assembly was fixed to the skull with dental cement.
as §1
Sleep and waking states were assessed using the biparietal EEG and nuchal EMG signals on 10-second epochs as described by Bennington et al. [Sleep 17:28-36 (1994)]. […] Sleep efficiency was measured as the percentage of total recorded epochs staged as NREM or REM sleep.

Sprague-Dawley rats [4] = test: Serotonin-induced apnea during REM sleep; assay type: in vivo; settings: rat; for serotonin-induced increase in REM sleep apnea: pretreatment with 0.1 mg/kg intraperitoneal 15 minutes before 0.79 mg/kg serotonin; for frequency of apnea during REM sleep: intraperitoneal, serotonin 0.79 mg/kg alone vs saline
Protocol: as §1, §2
An accepted physiological animal model [rat; Monti, et al., Pharamcol. Biochem. Behav., 51:125-131; (1995)] of sleep apnea was used to assess the effects of a cannabinoid receptor agonist activity and/or agents having cannabimimetic activity. More specifically, sleep apneas, defined as cessation of respiratory effort for at least 2.5 seconds, were scored for each recording session and were associated with the stage in which they occurred: NREM or REM sleep. The duration requirement of 2.5 seconds represented at least 2 “missed” breaths, which is therefore analogous to a 10 second apnea duration requirement in humans, which also reflects 2-3 missed breaths. The events detected represent central apneas because decreased ventilation associated with obstructed or occluded airways would generate an increased plethysmographic signal, rather than a pause. An apnea index (AI), defined as apneas per hour in a stage was separately determined for NREM and REM sleep. The effects of sleep stage (NREM vs. REM) and injection (control vs. test compounds) were tested using ANOVA with repeated measures. Multiple comparisons were controlled using Fisher's protected least significant difference (PLSD). In addition, the timing and volume of each breath were scored by automatic analysis (Experimenters' Workbench; Datawave Technologies, Longmont, Colo.). […]

[5] = intraperitoneal, 0.1 mg/kg, administered alone
[6] = intraperitoneal, 1.0 mg/kg, vs vehicle
[7] = intraperitoneal, 10.0 mg/kg, vs vehicle
[8] = 0.1-10.0 mg/kg, sleep/wake states

| Compound | breaths with long duration in typical 6-hour recordings (FIG. 1A) (Sprague-Dawley rats [1]; 10.0 mg/kg) | apnea expression during REM sleep (Sprague-Dawley rats [1]; [5]) | frequency of apneas during NREM sleep (Sprague-Dawley rats [1]; [6]) | apnea expression during REM sleep (Sprague-Dawley rats [1]; [7]) | frequency of apneas during NREM sleep (Sprague-Dawley rats [1]; [7]) | time dependence of apnea suppression during the 6-hour recording period (Sprague-Dawley rats [1]; intraperitoneal) | degree of apnea suppression, Δ^9THC compared with oleamide (Sprague-Dawley rats [1]; intraperitoneal) | average respiratory rate (RR) (Sprague-Dawley rats [2]; 10.0 mg/kg, 6-hour recording) | average respiratory rate (RR) (Sprague-Dawley rats [2]; [8]) | respiratory minute ventilation (Sprague-Dawley rats [2]; 0.1-10.0 mg/kg) | serotonin-induced increase in REM sleep apnea (Sprague-Dawley rats [4]) | further results |
| --- | --- | --- | --- | --- | --- | --- | --- | --- | --- | --- | --- | --- |
| CCCCCCCC/C=C\CCCCCCCC(N)=O [oleamide] | clear reduction in breaths with durations exceeding 1.5 seconds | neither Δ^9THC nor oleamide had any effect | suppressed apnea expression | suppressed apnea expression | suppressed apnea expression | persisted throughout the 6 hour recording interval | equivalent | tended to increase | dose dependent elevation of RR | Equivalent effects | completely blocked | frequency of apneas during NREM sleep (Sprague-Dawley rats [1]; intraperitoneal, 0.1 mg/kg, vs vehicle): suppressed apnea expression; apnea expression during REM sleep (Sprague-Dawley rats [1]; [6]): suppressed apnea expression; binding affinity to CB1 receptors (CB1 receptors): does not appear to bind with high affinity; binding affinity to CB2 receptors (CB2 receptors): does not appear to bind with high affinity; respiratory rate (RR), statistical significance of elevation (Sprague-Dawley rats [2]; 10.0 mg/kg vs. vehicle, p=0.03): achieved statistical significance only during wakefulness; sleep/wake architecture (Sprague-Dawley rats [3]; 0.1 mg/kg): increased REM sleep with decreased wakefulness; sleep/wake architecture (Sprague-Dawley rats [3]; 1.0 mg/kg): increased REM sleep with decreased wakefulness; sleep/wake architecture (Sprague-Dawley rats [3]; 10.0 mg/kg): increased NREM sleep with decreased REM sleep |
| NCCc1c[nH]c2ccc(O)cc12 [serotonin] |  |  |  |  |  |  |  |  |  |  |  | frequency of apnea during REM sleep (Sprague-Dawley rats [4]): significant increase in the frequency of apnea; frequency of apnea during REM sleep (Sprague-Dawley rats [4]; listed as Serotonin): significant increase in REM sleep-apnea |
| CCCCCc1cc(O)c2c(c1)OC(C)(C)[C@@H]1CCC(C)=C[C@@H]21 [Δ^9THC, 9-tetrahydrocannabinol] | clear reduction in breaths with durations exceeding 1.5 seconds | neither Δ^9THC nor oleamide had any effect | reduced the frequency of apneas | significant decrease | reduced the frequency of apneas | not time-dependent | equivalent | significantly reduced in all sleep/wake states | dose dependent reduction in RR | Equivalent effects | completely blocked | spontaneous apnea during all sleep stages (Sprague-Dawley rats [1]; intraperitoneal, 0.1-10.0 mg/kg, 6-hour recording, vs vehicle): strongly suppressed spontaneous apnea; change in REM sleep expression (Sprague-Dawley rats [3]; highest dose tested (10.0 mg/kg), p=0.0002): −66% |

Reference: patent US8207230B2, “Functional role for cannabinoids in autonomic stability during sleep” (The Board of Trustees of the University of Illinois, priority 2001, dated 2012)
